According to article PMC7475179, “Characterization of a caffeoyl-CoA O-methyltransferase-like enzyme involved in biosynthesis of polymethoxylated flavones in Citrus reticulata” (Journal of Experimental Botany, 2020):

Test system: CrOMT1
Assay: MTase-Glo methyltransferase assay (SAH luminescence), Michaelis-Menten fit
Assay type: biochemical, Citrus reticulata
Conditions: 2 mM SAM, 50 mM Tris-HCl pH 8.0, 37 °C, 30 min

| Km [µM] | Structure (SMILES) | further results |
| --- | --- | --- |
| 0.6 | O=c1cc(-c2cc(O)c(O)c(O)c2)oc2cc(O)cc(O)c12 [tricetin] | – |
| 248 | O=c1c(O)c(-c2ccc(O)cc2)oc2cc(O)cc(O)c12 [kaempferol] | – |
| 3.9 ± 0.5 | COc1c(-c2ccc(O)c(O)c2)oc2cc(O)cc(O)c2c1=O [quercetin 3-methyl ether] | – |
| – | O=c1cc(-c2ccc(O)c(O)c2)oc2cc(O)cc(O)c12 [luteolin, 5,7,3',4'-tetrahydroxyflavone] | Km (3'-O-methylation): 3.1 ± 0.6 µM |
| – | O=c1cc(-c2ccccc2)oc2c(O)c(O)ccc12 [7,8-dihydroxyflavone] | Km (8-O-methylation): 1.8 ± 0.4 µM |
| – | O=c1cc(-c2ccccc2)oc2cc(O)c(O)c(O)c12 [baicalein] | Km (6-O-methylation): 3.3 ± 0.6 µM |
| 23.8 ± 4.3 | O=c1c(O)c(-c2cc(O)c(O)c(O)c2)oc2cc(O)cc(O)c12 [myricetin] | – |
| 61.8 ± 9.9 | O=C1C[C@@H](c2ccc(O)c(O)c2)Oc2cc(O)cc(O)c21 [eriodictyol] | – |
| 8.7 ± 1 | C[C@@H]1O[C@@H](O[C@H]2[C@H](Oc3cc(O)c4c(c3)O[C@H](c3ccc(O)c(O)c3)CC4=O)O[C@H](CO)[C@@H](O)[C@@H]2O)[C@H](O)[C@H](O)[C@H]1O [neoeriocitrin, eriodictyol-7-O-neohesperidoside] | – |
| 7.9 ± 1 | C[C@@H]1O[C@@H](OC[C@H]2O[C@@H](Oc3cc(O)c4c(c3)O[C@H](c3ccc(O)c(O)c3)CC4=O)[C@H](O)[C@@H](O)[C@@H]2O)[C@H](O)[C@H](O)[C@H]1O [eriocitrin, eriodictyol-7-O-rutinoside] | – |

| Structure (SMILES) | Km [µM] | further results |
| --- | --- | --- |
| O=c1c(O)c(-c2ccc(O)c(O)c2)oc2cc(O)cc(O)c12 [quercetin] | 4.5 ± 0.8 | – |
